Reference: patent US10278396B2, “Synergistic Bacillus thuringiensis subsp. kurstaki and cyantraniliprole mixtures for diamondback moth, beet armyworm, sugarcane borer, and soybean looper control” (priority 2016, dated 2019)
Like-named read-outs stand apart in the source and are kept apart here.

Experiments:
beet armyworm larvae = experiment: leaf dip test, beet armyworm larvae; assay type: in vivo; details: Spodoptera exigua, foliar, Btk 0.54 ppm, cyantraniliprole 1.0 ppm, mixture 0.54 ppm + 1.0 ppm, read-out: % Efficacy
Description: (§1) For these tests, standardized laboratory leaf dip methods were used to inoculate plant material with treatment(s). Dry, treated leaves were placed into Petri dishes (100×25 mm) containing filter paper wetted with 500 μl of distilled H2O (“dH2O”). Each dish was then infested with between 5 and 10 larvae, dependent on species. Efficacy ratings were taken at specified intervals. Synergy ratings were calculated for each test.
(§2) % Cexp=A+B−(AB/100), where % Cexp is the expected efficacy and “in which A and B are the control levels given by the single [insecticides]. If the ratio between the experimentally observed efficacy of the mixture Cobs and the expected efficacy of the mixture is greater than 1, synergistic interactions are present in the mixture.” (Gisi, Synergisitic Interaction of Fungicides in Mixtures, The American Phytopathological Society, 86:11, 1273-1279, 1996). Adopting a conservative approach, Applicant determined synergy to be present at ratios of ≥1.15.
In this study, the response of beet armyworm larvae to synergistic amounts of Bacillus thuringiensis subsp. kurstaki and cyantraniliprole was observed.
(§3) Bacillus thuringiensis subsp. kurstaki was applied at a concentration of 0.54 ppm (0.54 μg/ml). Cyantraniliprole was applied at a concentration of 1.0 ppm (1.0 μg/ml). […]

sugarcane borer larvae = experiment: leaf dip test, sugarcane borer larvae; assay type: in vivo; details: Diatraea saccharalis, foliar, Btk 0.54 ppm, cyantraniliprole 1.0 ppm, mixture 0.54 ppm + 1.0 ppm, read-out: % Efficacy
Description: as §1, §2
In this study, the response of sugarcane borer larvae to synergistic amounts of Bacillus thuringiensis subsp. kurstaki and cyantraniliprole was observed.
as §3

[1] = system: southwestern corn borer larvae; experiment: leaf dip test, southwestern corn borer larvae; assay type: in vivo, Diatraea grandiosella; details: foliar, Btk 0.54 ppm, cyantraniliprole 0.1 ppm, mixture 0.54 ppm + 0.1 ppm, read-out: % Efficacy
Description: as §1, §2
In this study, the response of southwestern corn borer larvae to Bacillus thuringiensis subsp. kurstaki and cyantraniliprole was observed.
Bacillus thuringiensis subsp. kurstaki was applied at a concentration of 0.54 ppm (0.54 μg/ml). Cyantraniliprole was applied at a concentration of 0.1 ppm (0.1 μg/ml). […]

diamondback moth larvae = experiment: leaf dip test, diamondback moth larvae; assay type: in vivo; details: Plutella xylostella, foliar, Btk 0.54 ppm, cyantraniliprole 0.1 ppm, mixture 0.54 ppm + 0.1 ppm, read-out: % Efficacy
Description: as §1
In this study, the response of diamondback moth larvae to synergistic amounts of Bacillus thuringiensis subsp. kurstaki (“Btk”) and cyantraniliprole was observed.
% Cexp=A+B−(AB/100), where % Cexp is the expected efficacy and “in which A and B are the control levels given by the single [insecticides]. […] Adopting a conservative approach, Applicant determined synergy to be present at ratios of ≥1.15. […]
In order to determine synergy, rates below normal field rate ranges must be used. If normal field rate ranges are used, all of the larvae would die (combining a lethal or near lethal dose of Bacillus thuringiensis subsp. kurstaki with a lethal dose of cyantraniliprole would most likely lead to larvae death) in every treatment and synergy would not be able to be determined. […]

cabbage looper larvae = experiment: leaf dip test, cabbage looper larvae; assay type: in vivo; details: Trichoplusia ni, foliar, Btk 0.54 ppm, cyantraniliprole 0.50 ppm, mixture 0.54 ppm + 0.50 ppm, read-out: % Efficacy
Description: as §1, §2
In this study, the response of cabbage looper larvae to Bacillus thuringiensis subsp. kurstaki and cyantraniliprole was observed.
Bacillus thuringiensis subsp. kurstaki was applied at a concentration of 0.54 ppm (0.54 μg/ml). Cyantraniliprole was applied at a concentration of 0.50 ppm (0.50 μg/ml). […]

soybean looper larvae = experiment: leaf dip test, soybean looper larvae; assay type: in vivo, Chrysodeixis includens; details: foliar, Btk 0.54 ppm, cyantraniliprole 1.0 ppm, mixture 0.54 ppm + 1.0 ppm, read-out: % Efficacy
Description: as §1, §2
In this study, the response of soybean looper larvae to synergistic amounts of Bacillus thuringiensis subsp. kurstaki and cyantraniliprole was observed.
as §3

corn earworm larvae = experiment: leaf dip test, corn earworm larvae; assay type: in vivo; details: Helicoverpa zea, foliar, Btk 0.54 ppm, cyantraniliprole 10.0 ppm, mixture 0.54 ppm + 10.0 ppm, read-out: % Efficacy
Description: as §1, §2
In this study, the response of corn earworm larvae to Bacillus thuringiensis subsp. kurstaki and cyantraniliprole was observed.
Bacillus thuringiensis subsp. kurstaki was applied at a concentration of 0.54 ppm (0.54 μg/ml). Cyantraniliprole was applied at a concentration of 10.0 ppm (10.0 μg/ml). […]

Molecule CNC(=O)c1cc(C#N)cc(C)c1NC(=O)c1cc(Br)nn1-c1ncccc1Cl [Cyantraniliprole, 3-Bromo-1-(3-chloro-2-pyridinyl)-N-[4-cyano-2-methyl-6-(methylcarbamoyl)phenyl]-1H-pyrazole-5-carboxamide] has an Emax at 1 ppm (beet armyworm larvae; 24 h after treatment) of 20%, an Emax at 1 ppm (beet armyworm larvae; 48 h after treatment) of 37% and an Emax at 1 ppm (sugarcane borer larvae; 24 h after treatment) of 30%. The Emax at 1 ppm (sugarcane borer larvae; 48 h after treatment) was 32%, the Emax at 0.1 ppm ([1]; 24 h after treatment) was 23% and the Emax at 0.1 ppm ([1]; 48 h after treatment) was 39%. For the same molecule, the Emax at 0.1 ppm (diamondback moth larvae; 24 h after treatment) was 16%, the Emax at 0.1 ppm (diamondback moth larvae; 48 h after treatment) was 47% and the Emax at 0.5 ppm (cabbage looper larvae; 24 h after treatment) was 15%. For the same molecule, the Emax at 0.5 ppm (cabbage looper larvae; 48 h after treatment) was 51%, the Emax at 1 ppm (soybean looper larvae; 24 h after treatment) was 6% and the Emax at 1 ppm (soybean looper larvae; 48 h after treatment) was 10%. It also gave an Emax at 10 ppm (corn earworm larvae; 24 h after treatment) of 29% and an Emax at 10 ppm (corn earworm larvae; 48 h after treatment) of 33%.
